Experiments:
HT29 cells = assay: HT29 cell viability assay (CellTiter-Blue); type: cell-based, human; details: HT29 cells, SNALP-formulated siRNA at a range of siRNA concentrations, viability at 72 h relative to PBS
Procedure: (§1) Various PLK-1 siRNAs were formulated as SNALP (“2:40” SNALP formulation: 2% PEG-cDMA; 40% DLinDMA; 10% DSPC; and 48% cholesterol) and evaluated for their inhibitory effects on cell growth in vitro. HT29 (human colon adenocarcinoma) or Neuro2A (mouse neuroblastoma) cells were treated with various PLK-1 SNALP at a range of siRNA concentrations and their effect on cell viability was evaluated. Viability of cell cultures is expressed as % viability relative to PBS treated controls.
Additional PLK-1 siRNA molecules were formulated as SNALP (“2:40” SNALP formulation: 2% PEG-cDMA; 40% DLinDMA; 10% DSPC; and 48% cholesterol) and evaluated for their inhibitory effects on cell growth in vitro. HT29 or Neuro2A cells were plated in triplicate at 5000 cells/well and 2500 cells/well, respectively. PLK-1 SNALP dosages were as follows: 25 nM; 5 nM; and 1 nM. Cell viability analysis was performed at 72 hours following transfection. SNALP containing a non-targeting (GFP) siRNA were used as a negative control. […]
PLK-1 siRNA molecules containing 2′-O-methyl (2′OMe) nucleotides at selective positions within the double-stranded region of the siRNA duplex were formulated as SNALP (“2:40” SNALP formulation: 2% PEG-cDMA; 40% DLinDMA; 10% DSPC; and 48% cholesterol) and evaluated for their inhibitory effects on cell growth in vitro. HT29 cells were plated in triplicate at 5000 cells/well. Cell viability analysis was performed at 72 hours following transfection with a range of PLK-1 SNALP dosages. SNALP containing a non-targeting (GFP) siRNA were used as a negative control.
Cell viability assays. […] Cell viability analysis was performed at 72 hours following transfection with a range of PLK-1 SNALP dosages.

Neuro2A cells = assay: Neuro2A cell viability assay (CellTiter-Blue); type: cell-based; details: mouse Neuro2A cells, SNALP-formulated siRNA, viability at 72 h relative to PBS
Procedure: as §1
Additional PLK-1 siRNA molecules were formulated as SNALP (“2:40” SNALP formulation: 2% PEG-cDMA; 40% DLinDMA; 10% DSPC; and 48% cholesterol) and evaluated for their inhibitory effects on cell growth in vitro. HT29 or Neuro2A cells were plated in triplicate at 5000 cells/well and 2500 cells/well, respectively. PLK-1 SNALP dosages were as follows: 25 nM; 5 nM; and 1 nM. Cell viability analysis was performed at 72 hours following transfection. SNALP containing a non-targeting (GFP) siRNA were used as a negative control.
Additional PLK-1 siRNA molecules were formulated as SNALP (“2:40” SNALP formulation: 2% PEG-cDMA; 40% DLinDMA; 10% DSPC; and 48% cholesterol) and evaluated for their inhibitory effects on cell growth in vitro. HT29 or Neuro2A cells were plated in triplicate at 5000 cells/well and 2500 cells/well, respectively. PLK-1 SNALP dosages were as follows: 30 nM; 10 nM; and 3.3 nM. Cell viability analysis was performed at 72 hours following transfection. SNALP containing a non-targeting (GFP) siRNA were used as a negative control.

IFIT1 mRNA, serum IFNα = assay: In vivo immune stimulation assay in Balb/c mice (IFIT1 mRNA, serum IFNα); details: SNALP-formulated siRNA IV
Procedure: Balb/c mice (n=4 per group) were administered 2.5 mg/kg siRNA or lipid vehicle; serum IFNα (pg/mL) and IFIT1 mRNA (relative to GAPDH) from whole liver lysates were assessed after 4, 8, and 16 h by ELISA and bDNA assay, respectively. […] (b) Serum IFNα and (c) liver IFIT1 mRNA were assessed 4 h after administration (mean+SD, n=4).
SNALP-formulated Luc (unmodified) and the 2′OMe-modified Luc-U/U, PLK1424-2/A, PLK773-1/B, or KSP2263-U/U siRNA were administered at 2 mg/kg i.v. to Balb/C mice. (A) IFIT1 relative to GAPDH mRNA in liver and spleen was assessed at 4 h by bDNA analysis. […] Serum IFNα was assessed at 6 h by ELISA. […] Values represent mean+SD (n=4).
IFIT1 mRNA and serum cytokines were assessed 4-6 h after SNALP administration based on the approximate time of peak response for these markers. In these studies, SNALP-formulated native Luc siRNA (Table 6) was used as a positive control for immune stimulation.
In vivo immune stimulation assays. […] 6-8 week old Balb/C mice were obtained from Harlan and subject to a two week acclimation period prior to use. Mice were administered SNALP formulated siRNA (2 mg/kg) in PBS via standard intravenous injection in the lateral tail vein. Blood was collected by cardiac puncture and processed as plasma for cytokine analysis. Liver and spleen were collected into RNALater (Sigma Co.) for IFIT1 mRNA analysis.
Measurement of IFIT1 mRNA in mouse tissues. Murine liver and spleen were processed for bDNA assay to quantitate IFIT1 mRNA as described above. The IFIT1 probe set was specific to mouse IFIT1 mRNA (positions 4-499 of NM—008331) and the GAPDH probe set was specific to mouse GAPDH mRNA (positions 9-319 of NM—008084). Data is shown as the ratio of IFIT1 relative light units (RLU) to GAPDH RLU.
Cytokine ELISA. All cytokines were quantified using sandwich ELISA kits. These were mouse interferon-α (PBL Biomedical; Piscataway, N.J.) and human and mouse IL-6 (BD Biosciences; San Diego, Calif.).

Row | Substance | cell viability / killing of human tumor cells (HT29 cells) | cell viability / inhibition of cell growth (Neuro2A cells) | other results
1 | PLK832: siRNA to human PLK-1, SEQ ID NO:13/14 (chain 1 GCCGCCUCCCUCAUCCAGA; chain 2 UCUGGAUGAGGGAGGCGGC; listed as RNA, chemistry not given here) | effective at killing human tumor cells |  | 
2 | PLK1345: siRNA to human PLK-1, SEQ ID NO:29/30 (chain 1 GACAGCCUGCAGUACAUAG; chain 2 CUAUGUACUGCAGGCUGUC; listed as RNA, chemistry not given here) | inhibited the growth of human tumor cells, but at higher siRNA concentrations | effective at inhibiting the growth of mouse Neuro2A cells at higher siRNA concentrations | 
3 | PLK1233: siRNA to human PLK-1, SEQ ID NO:25/26 (chain 1 CAGCAAGUGGGUGGACUAU; chain 2 AUAGUCCACCCACUUGCUG; listed as RNA, chemistry not given here) | effective at killing human tumor cells |  | 
4 | PLK1242: siRNA to human PLK-1, SEQ ID NO:27/28 (chain 1 GGUGGACUAUUCGGACAAG; chain 2 CUUGUCCGAAUAGUCCACC; listed as RNA, chemistry not given here) | effective at killing human tumor cells |  | 
5 | PLK1232: siRNA to human PLK-1, SEQ ID NO:23/24 (chain 1 UCAGCAAGUGGGUGGACUA; chain 2 UAGUCCACCCACUUGCUGA; listed as RNA, chemistry not given here) | effective at killing human tumor cells | most potent human/mouse cross-reactive siRNA molecule | 
6 | PLK1425 3/5: 2′OMe-modified PLK1425 siRNA, SEQ ID NO:67/68 (chain 1 GANCACCCUCCUNAAANAUNN; chain 2 AUAUUUAANGAGGGUGANCNN; 2'-OMe modifications, chemistry not fully specified) | more potent than the unmodified PLK1425 sequence |  | 
7 | PLK1229: siRNA to human PLK-1, SEQ ID NO:21/22 (chain 1 GGGUCAGCAAGUGGGUGGA; chain 2 UCCACCCACUUGCUGACCC; listed as RNA, chemistry not given here) | effective at killing human tumor cells | most potent human/mouse cross-reactive siRNA molecules | 
8 | PLK1556: siRNA to human PLK-1, SEQ ID NO:31/32 (chain 1 GCGCCAUCAUCCUGCACCU; chain 2 AGGUGCAGGAUGAUGGCGC; listed as RNA, chemistry not given here) | effective at killing human tumor cells |  | 
9 | mPLK1425: siRNA to mouse PLK-1, SEQ ID NO:37/38 (chain 1 GAUCACUCUCCUCAACUAU; chain 2 AUAGUUGAGGAGAGUGAUC; listed as RNA, chemistry not given here) |  | most active mouse-specific siRNA sequences | 
10 | mPLK1607: siRNA to mouse PLK-1, SEQ ID NO:43/44 (chain 1 AGGACCACACCAAACUUAU; chain 2 AUAAGUUUGGUGUGGUCCU; listed as RNA, chemistry not given here) |  | most active mouse-specific PLK-1 siRNA sequences | 
11 | PLK1424 U4/GU: 2′OMe-modified PLK1424 siRNA, SEQ ID NO:57/54 (chain 1 AGANCACCCNCCUNAAANANN; chain 2 UAUUUAANGAGGGUGANCUNN; 2'-OMe modifications, further chemistry not given here) | as potent as the unmodified PLK1424 sequence |  | 
12 | U(S)-ApoB1: ApoB-1 siRNA with 2′OMe-modified sense strand, SEQ ID NO:284/285 (sense GNCANCACACNGAANACCAAN; antisense AUUGGUAUUCAGUGUGAUGACAC; 2'-OMe on sense strand, chemistry not fully specified) |  |  | serum IFNα / serum cytokine response (IFIT1 mRNA, serum IFNα; 4-6 h): no measurable serum cytokine response; IFIT1 mRNA induction in liver and spleen (IFIT1 mRNA, serum IFNα; 4 h): induction of IFN-inducible p56 IFIT1 mRNA in the liver and spleen
13 | PLK773 G/GU: 2′OMe-modified PLK773 siRNA, SEQ ID NO:64/63 (chain 1 AGACCUACCUCCGGAUCAANN; chain 2 UUGAUCCGGAGGUAGGUCUNN; chain 1: 2'-O-methyl at 2, 13, other sugars, backbone and the base at N not given here; chain 2: 2'-O-methyl at 9, 12, 17, other sugars, backbone and the base at N not given here; 3' NN overhangs: dT or U ribonucleotide) | more potent than the unmodified PLK1424 sequence |  | 
14 | PLK1081: siRNA to human PLK-1, SEQ ID NO:17/18 (chain 1 CCAGUGGUUCGAGAGACAG; chain 2 CUGUCUCUCGAACCACUGG; listed as RNA, chemistry not given here) | inhibited the growth of human tumor cells, but at higher siRNA concentrations |  | 
15 | PLK1195: siRNA to human PLK-1, SEQ ID NO:19/20 (chain 1 GAGGCUGAGGAUCCUGCCU; chain 2 AGGCAGGAUCCUCAGCCUC; listed as RNA, chemistry not given here) | effective at killing human tumor cells |  | 
16 | mPLK1668: siRNA to mouse PLK-1, SEQ ID NO:49/50 (chain 1 GAGGGACUUCCAAACGUAC; chain 2 GUACGUUUGGAAGUCCCUC; listed as RNA, chemistry not given here) |  | most active mouse-specific PLK-1 siRNA sequences | 
17 | PLK1424 U3/GU: 2′OMe-modified PLK1424 siRNA, SEQ ID NO:53/54 (chain 1 AGANCACCCNCCUNAAAUANN; chain 2 UAUUUAANGAGGGUGANCUNN; 2'-OMe modifications, further chemistry not given here) | as potent as the unmodified PLK1424 sequence |  | 
18 | mPLK1424: siRNA to mouse PLK-1, SEQ ID NO:35/36 (chain 1 AGAUCACUCUCCUCAACUA; chain 2 UAGUUGAGGAGAGUGAUCU; listed as RNA, chemistry not given here) |  | most active mouse-specific siRNA sequences | 
19 | mPLK1608: siRNA to mouse PLK-1, SEQ ID NO:45/46 (chain 1 GGACCACACCAAACUUAUC; chain 2 GAUAAGUUUGGUGUGGUCC; listed as RNA, chemistry not given here) |  | most active mouse-specific PLK-1 siRNA sequences | 
20 | PLK694: siRNA to human PLK-1, SEQ ID NO:9/10 (chain 1 GUGGAUGUGUGGUCCAUUG; chain 2 CAAUGGACCACACAUCCAC; listed as RNA, chemistry not given here) | effective at killing human tumor cells |  | 
21 | PLK772: siRNA to human PLK-1, SEQ ID NO:11/12 (chain 1 GAGACCUACCUCCGGAUCA; chain 2 UGAUCCGGAGGUAGGUCUC; listed as RNA, chemistry not given here) | effective at killing human tumor cells |  | 
